# Laboratory results taken from patent US7838528B2, “Substituted bicyclic 8-pyrrolidinoxanthines, methods for their production, pharmaceutical formulations and their use” (sanofi-aventis Deutschland GmbH, priority 2004, dated 2010).
# Structures can show the parent of a compound that is named as a salt.
# Target: T1, DPP-IV from porcine kidney (Sus scrofa, UniProt P22411)
# T1 construct: DPP-IV from porcine kidney (Sigma Chemical GmbH, Munich DE); purchased Sigma Chemical GmbH, Munich DE; host or cells: porcine kidney (tissue-derived enzyme)
# T1 sequence (P22411 whole entry): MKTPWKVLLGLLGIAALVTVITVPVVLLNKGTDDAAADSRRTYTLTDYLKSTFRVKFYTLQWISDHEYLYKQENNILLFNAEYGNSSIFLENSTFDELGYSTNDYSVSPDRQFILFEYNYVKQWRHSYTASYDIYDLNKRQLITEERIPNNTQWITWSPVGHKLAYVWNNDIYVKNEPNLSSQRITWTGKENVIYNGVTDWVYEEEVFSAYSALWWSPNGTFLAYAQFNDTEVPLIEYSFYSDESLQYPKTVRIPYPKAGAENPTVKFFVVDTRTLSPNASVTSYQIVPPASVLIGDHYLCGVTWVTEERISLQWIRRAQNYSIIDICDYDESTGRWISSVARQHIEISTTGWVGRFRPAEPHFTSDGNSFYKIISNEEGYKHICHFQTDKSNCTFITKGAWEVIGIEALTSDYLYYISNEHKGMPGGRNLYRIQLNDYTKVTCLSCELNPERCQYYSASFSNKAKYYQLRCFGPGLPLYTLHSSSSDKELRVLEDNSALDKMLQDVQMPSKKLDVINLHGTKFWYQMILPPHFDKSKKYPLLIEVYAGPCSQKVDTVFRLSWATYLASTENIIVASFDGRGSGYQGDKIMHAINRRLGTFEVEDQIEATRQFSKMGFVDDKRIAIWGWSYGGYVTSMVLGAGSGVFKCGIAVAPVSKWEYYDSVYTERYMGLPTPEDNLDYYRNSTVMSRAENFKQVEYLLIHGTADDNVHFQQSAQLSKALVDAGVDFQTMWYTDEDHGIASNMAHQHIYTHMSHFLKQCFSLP
# Assay: Measurement of the DPP-IV activity (H-Ala-Pro-AFC fluorimetric assay)
# Format: biochemical
# Conditions: H-Ala-Pro-AFC 15 μM, DPP-IV 1 mU/ml, Tris/HCl pH 7.4, room temperature
# Experimental: Measurement of the DPP-IV Activity: […]
# a) DPP-IV from porcine kidney (Sigma Chemical GmbH, Munich DE) b) H-Ala-Pro-AFC (Bache Chemical Co., Weil am Rheine DE) […]
# c) DPP-IV (1 mU/ml, final concentration) d) H-Ala-Pro-AFC (15 μM, final concentration) • in Tris/HCl (40 mM, pH 7.4), total volume 0.2 ml The reaction was carried out at room temperature at different reaction times (typically 10 min) and stopped at the end of the reaction by adding 20 μl of ZnCl2 (1 M). The H-Ala-Pro-AFC conversion was determined fluorimetrically by measuring the emission at 535 nm after excitation at 405 nm. When inhibitors were added, the added buffer volume was adapted so that a total volume of 200 μl was maintained for the assay mixture.
# IC50 values for inhibitors were determined by varying the inhibitor concentrations with the stated substrate concentration of 15 μM. Ki and Km values were found by appropriate variation of substrate concentration and inhibitor concentration as described (Dixon, M. and Webb, E. C. (1979) Enzymes, third edition, pp. 47-206, Academic Press) which is herein incorporated by reference. The values for Km, IC50 and Ki were calculated using a commercially available software package (Leatherbarrow, R. J. (1992) GraFit Version 3.0, Erithacus Software Ltd. Staines, U.K.).
row,IC50 [nM],Structure (SMILES)
1,34,"CC(C)=CCn1c(N2CC[C@@H]3NCC[C@@H]32)nc2c1c(=O)n(CC(=O)c1ccccc1)c(=O)n2C (relative stereo) [Example 1, 8-(cis-Hexahydro-pyrrolo[3,2-b]pyrrol-1-yl)-3-methyl-7-(3-methyl-but-2-enyl)-1-(2-oxo-2-phenyl-ethyl)-3,7-dihydropurine-2,6-dione hydrochloride]"
2,160,"CC(C)=CCn1c(N2CC[C@@H]3NCC[C@@H]32)nc2c1c(=O)n(CC(=O)c1ccccc1)c(=O)n2C (single isomer, unassigned) [Example 1a, 8-(cis-Hexahydro-pyrrolo[3,2-b]pyrrol-1-yl)-3-methyl-7-(3-methyl-but-2-enyl)-1-(2-oxo-2-phenyl-ethyl)-3,7-dihydro-purine-2,6-dione]"
3,18,"CC(C)=CCn1c(N2CC[C@@H]3NCC[C@@H]32)nc2c1c(=O)n(CC(=O)c1ccccc1)c(=O)n2C (single isomer, unassigned) [Example 1b, 8-(cis-Hexahydro-pyrrolo[3,2-b]pyrrol-1-yl)-3-methyl-7-(3-methyl-but-2-enyl)-1-(2-oxo-2-phenyl-ethyl)-3,7-dihydro-purine-2,6-dione]"
